In brackets after ≈: the same amount, converted by molar mass. Counter-ions that a name gives are not always drawn.
What was measured:
[1] = system: HSV-1 (F); assay: Antiviral activity in vitro: retardation of virus-induced cytopathogenicity in primary rabbit kidney cells, HSV-1 (F); format: cell-based, herpes simplex virus, Type 1; conditions: Human alphaherpesvirus 1, average of 2 or 3 determinations, read-out: Minimum Inhibitory Concentration (concentration necessary to reduce by 50% the cytopathogenicity induced by the virus)
Description: (§1) In a series of biological tests an investigation was made of the activity of the compounds of Examples 1-3 in comparison with acyclovir against various viruses in cell cultures of primary rabbit kidney cells.
(§2) The viruses used were: herpes simplex type 1 (strains KOS, Mc Intyre and F) and herpes simplex type 2 (strains Lyons, G and 196).
(§3) The origin of the six herpes simplex strains and the method for the measurement of the retardation of the cytopathogenicity induced by the virus are described by E. de Clercq et al. in J. Infect Dis., 141, 563 (1980).
(§4) The results of the tests are reproduced in the following table, where they are expressed in the minimum inhibitory concentration, that is to say the concentration (in μg/ml) which is necessary to reduce by 50% the cytopathogenicity induced by the virus in the cell culture. In all cases average values of 2 or 3 separate determinations are given.

[2] = system: HSV-2 (G); assay: Antiviral activity in vitro: retardation of virus-induced cytopathogenicity in primary rabbit kidney cells, HSV-2 (G); format: cell-based, herpes simplex virus, Type 2; conditions: Human alphaherpesvirus 2, average of 2 or 3 determinations, read-out: Minimum Inhibitory Concentration (concentration necessary to reduce by 50% the cytopathogenicity induced by the virus)
Description: as §1, §2, §3, §4

[3] = system: herpes viruses; conditions: H. J. Schaeffer et al, Nature, 272, 583-585 (1978); cited from earlier work
[4] = system: HSV-2 (196); assay: Antiviral activity in vitro: retardation of virus-induced cytopathogenicity in primary rabbit kidney cells, HSV-2 (196); format: cell-based, herpes simplex virus, Type 2; conditions: Human alphaherpesvirus 2, average of 2 or 3 determinations, read-out: Minimum Inhibitory Concentration (concentration necessary to reduce by 50% the cytopathogenicity induced by the virus)
Description: as §1, §2, §3, §4

[5] = system: HSV-1 (KOS); assay: Antiviral activity in vitro: retardation of virus-induced cytopathogenicity in primary rabbit kidney cells, HSV-1 (KOS); format: cell-based, herpes simplex virus, Type 1; conditions: Human alphaherpesvirus 1, average of 2 or 3 determinations, read-out: Minimum Inhibitory Concentration (concentration necessary to reduce by 50% the cytopathogenicity induced by the virus)
Description: as §1, §2, §3, §4

[6] = system: HSV-1 (McIntyre); assay: Antiviral activity in vitro: retardation of virus-induced cytopathogenicity in primary rabbit kidney cells, HSV-1 (McIntyre); format: cell-based, herpes simplex virus, Type 1; conditions: Human alphaherpesvirus 1, average of 2 or 3 determinations, read-out: Minimum Inhibitory Concentration (concentration necessary to reduce by 50% the cytopathogenicity induced by the virus)
Description: as §1, §2, §3, §4

[7] = system: HSV-2 (Lyons); assay: Antiviral activity in vitro: retardation of virus-induced cytopathogenicity in primary rabbit kidney cells, HSV-2 (Lyons); format: cell-based, herpes simplex virus, Type 2; conditions: Human alphaherpesvirus 2, average of 2 or 3 determinations, read-out: Minimum Inhibitory Concentration (concentration necessary to reduce by 50% the cytopathogenicity induced by the virus)
Description: as §1, §2, §3, §4

[8] = system: HSV-1 (strain McIntyre); assay: Antiviral activity in vivo: HSV-1 stromal keratitis in rabbits, eye drops
Method: The in vivo antiviral activity of the compound of Example 1 was compared with the known antiviral bromovinyldeoxyuridine.
Eye drops containing 0.5% (w/v) of bromovinyldeoxyuridine or 1% w/v of compound of Example 1 were prepared in an isotonic borate buffer containing 1.52 g boric acid, 0.008 g borax and 0.01 g benzalkoniumchloride in 100 ml distilled water. The pH of the solution was 5.7. The vehicle alone without any antiviral ingredients was used as placebo. The eye drops were coded.
A cross-breed of California albino and Dendermonde white rabbits, weighing between 1.5 and 2 kg, were used.
Thirty rabbits were used to produce stromal keratitis according to the technique of McNeill and Kaufman (Arch. Ophthalmol. 97: 727-729, 1979). Rabbits were anesthetized by a subcutaneous injection of fentanyl citrate at 1 ml/kg. A 0.2 ml virus suspension, containing 10^4.5 plaque-forming units of HSV-1 (strain McIntyre) per ml, was injected into the central corneal stroma of both eyes.
The rabbits were numbered serially and allocated at random to three groups of […] rabbits each. Treatment consisted of administration of eye drops containing the compound of Example 1, bromovinyldeoxyuridine, or placebo eye drops. Treatment was started one day after virus inoculation. One drop of the eye drop formulation was instiled into the eye at hourly intervals, nine times as day. Therapy was continued for 5 consecutive days. Both eyes of each rabbit received the same modification.
The severity of keratitis was evaluated daily by the same person using a slitlamp. White illumination was used to examine the corneal stroma and anterior chamber structures. One percent fluorescein sodium eye drops and a cobalt blue filter were employed to judge epithelial keratitis and corneal ulceration.

[9] = eye drops, Example 1 at 1% w/v or bromovinyldeoxyuridine at 0.5% w/v
[10] = iritis accompanying stromal HSV-1 keratitis, eye drops

Row | IC50 [1] | IC50 [2] | IC50 [4] | IC50 [5] | IC50 [6] | IC50 [7] | SMILES | antiviral activity [3] | difference in keratitis score versus placebo [8, 9] | progression or healing of stromal disease [8, 9] | suppression of stromal keratitis ([8]; eye drops, Example 1 at 1% w/v or bromovinyldeoxyuridine at 0.5% w/v, hourly nine times a day, 5 days) | difference in iritis scores versus placebo [8, 10] | reduction in the iritis scores [8, 10] | mean keratitis scores ([8]; once treatment was initiated, 1% w/v eye drops)
1 | 0.09 µg/mL (≈ 0.4 µM) | 0.06 µg/mL (≈ 0.266 µM) | 0.06 µg/mL (≈ 0.266 µM) | 0.08 µg/mL (≈ 0.355 µM) | 0.1 µg/mL (≈ 0.444 µM) | 0.04 µg/mL (≈ 0.178 µM) | Nc1nc2c(ncn2COCCO)c(=O)[nH]1 [Acyclovir, 9-(2-Hydroxyethoxymethyl)guanine, reference compound] | potential antiviral activity, particularly against herpes viruses |  |  |  |  |  | 
2 | 0.1 µg/mL | 0.08 µg/mL | 0.07 µg/mL | 0.1 µg/mL | 0.1 µg/mL | 0.04 µg/mL | Cl.NCC(=O)OCCOCn1cnc2c(=O)[nH]c(N)nc21 [Example 1, 9-(2-glycyloxyethoxymethyl)guanine hydrochloride] |  | statistically significant throughout the whole observation period | prevented the progression of stromal disease | effective in suppressing stromal keratitis | significant from day 2 till day 8 | significant reduction in the iritis scores | remained nearly constant
3 | 0.4 µg/mL | 0.2 µg/mL | 0.1 µg/mL | 0.4 µg/mL | 0.4 µg/mL | 0.07 µg/mL | CC(N)C(=O)OCCOCn1cnc2c(=O)[nH]c(N)nc21 (stereo not drawn) [Example 2, 9-(2-0-α-alanyloxyethoxymethyl)guanine hydrochloride] |  |  |  |  |  |  | 
4 | 0.5 µg/mL | 0.15 µg/mL | 0.1 µg/mL | 0.2 µg/mL | 0.4 µg/mL | 0.1 µg/mL | NCCC(=O)OCCOCn1cnc2c(=O)[nH]c(N)nc21 [Example 3, 9-(2-0-β-alanyloxyethoxymethyl)guanine hydrochloride] |  |  |  |  |  |  | 

— patent US4548819A, “Derivatives of 9-(2-hydroxyethoxymethyl) guanine” (priority 1983, dated 1985)
